{"source": "patent US20060052303A1", "about": "“Use of thyrotropin for regeneration of bone” (priority 2004, published 2006)", "key": {"OVX rats": {"tested_on": "OVX rats", "assay": "Treatment of osteopenia in OVX rats using rat TSH (Example 2B)", "assay_type": "in vivo", "experimental": "A similar study following essentially the same dosing regimens. was performed using the native rat TSH in OVX rats. […] Rat TSH with a specific activity of approximately 90 lU/mg was obtained from the Scripps Institute. Bone mineral monitoring in vivo and serum and urine biochemical analyses were performed essentially as described in Example 3A.\nBiochemical assays—Urinary levels of deoxypyridinoline cross-links and creatinine (DPD and Cr, respectively) are analyzed in duplicate using rat ELISA kits from Metrobiosystems (Mountain View, Calif., USA). Serum levels of osteocalcin (OSC) are measured using a rat sandwich ELISA kit from Biomedical Technologies (Stroughton, Mass., USA). The manufacturer's protocols are followed, and all samples are assayed in duplicate. A standard curve is generated from each kit, and the absolute concentrations are extrapolated from the standard curve. […]\nThe complete secondary spongiosa of the proximal tibia is evaluated, thereby completely avoiding sampling errors incurred by random deviations of a single section. […] From the binarized images, structural indices are assessed with three-dimensional (3D) techniques for trabecular bone.\nRelative bone volume, trabecular number, thickness, and separation are calculated by measuring 3D distances directly in the trabecular network and taking the mean over all voxels.\nBone surface is calculated from a tetrahedron meshing technique. By displacing the surface of the structure in infinitesimal amounts, the structure model index (SMI) is calculated. The SMI quantifies the plate versus rod characteristics of trabecular bone, in which an SMI of 0 pertains to a purely plate-shaped bone, an SMI of 3 designates a purely rod-like bone, and values between stand for mixtures of plates and rods. Furthermore, connectivity density based on the Euler number is determined. In addition, a 3D cubical voxel model of bone is built, and cortical thickness is measured."}, "[1]": {"tested_on": "ovariectomized (OVX) rats", "assay": "Bone restoration study in ovariectomized rats with native rat TSH (Example 3B)", "assay_type": "in vivo", "experimental": "To confirm that TSH has an anabolic effect on bone, a restoration study was performed, Native rat TSH was administered seven months after ovariectomy essentially following a similar dose and dosing regimen as described in Example 2B except that administration of TSH was extended until 16 weeks.\nTwelve animals were sham operated, while forty eight were ovariectomized (OVX) bilaterally by abdominal approach. Treatment started six weeks after ovariectomy as follows: (1) SHAM (n=12); (2) OVX+vehicle (n=12); (3) OVX+0.01 μg (n=12); (3) OVX+0.1 μg (n=12); and (4) OVX+0.3 μg (n=12).\nBone mineral density monitoring in vivo and ex vivo and serum and urine biochemical analyses were performed essentially as described in Example 3A. Eight-month old rats were ovariectomized and then left for seven months to lose bone. Therapy was then started and continued for 16 weeks and BMD was measured both in vivo and ex vivo, and microCT and serum biochemistry were performed."}, "[2]": {"details": "obtained from the Scripps Institute; cited from earlier work"}, "thyroid": {"tested_on": "thyroid", "details": "in rats; cited from earlier work"}, "[3]": {"details": "in particular with 0.1 and 0.3 μg/rat"}}}
{"substance": "rat TSH: native rat TSH obtained from the Scripps Institute", "values": [{"measurement": "bone loss associated with ovariectomy", "setting": "OVX rats; 0.01, 0.1, 0.3 μg per rat, in vivo total body, hind limbs, lumbar BMD, ex vivo proximal femur and tibia BMD, microCT", "result": "effective in preventing the bone loss"}, {"measurement": "serum collagen C-telopeptide", "setting": "OVX rats; indicates anti-resorptive activity", "result": "reduction"}, {"measurement": "effective concentration in the rat relative to human TSH", "setting": "OVX rats; rat, in vivo", "result": "effective in the rat at lower concentration than human TSH"}, {"measurement": "BMD values of hind limbs in vivo", "setting": "[1]; 0.01 μg/rat, 12 and 16 weeks time points", "result": "did not induce a measurable effect"}, {"measurement": "cortical thickness above ovariectomized rats", "setting": "[1]; 0.1 μg/rat", "result": 14, "unit": "%"}, {"measurement": "cortical thickness above sham animal values", "setting": "[1]; 0.1 μg/rat", "result": "~10", "unit": "%"}, {"measurement": "ex vivo proximal femur BMD (DEXA)", "setting": "[1]; 0.3 μg", "result": "increased"}, {"measurement": "cortical thickness (microCT)", "setting": "[1]; 0.1 and 0.3 μg/rat", "result": "increased"}, {"measurement": "BMD values of hind limbs in vivo", "setting": "[1]; 0.1 and 0.3 μg/rat, FIG. 14", "result": "increased"}, {"measurement": "bone volume of long bones and the spine (microCT, trabecular bone ex vivo)", "setting": "[1]; all three doses tested (0.01, 0.1, 0.3 μg)", "result": "increased"}, {"measurement": "ex vivo lumbar spine BMD", "setting": "[1]; [3]", "result": "increased"}, {"measurement": "ex vivo tibia BMD", "setting": "[1]; [3]", "result": "increased"}, {"measurement": "trabecular number (microCT)", "setting": "[1]; lesser extent than trabecular thickness", "result": "increased"}, {"measurement": "T3 and T4 serum levels", "setting": "[1]; rat, in vivo", "result": "no measurable increase"}, {"measurement": "ex vivo distal femur BMD (DEXA)", "setting": "[1]; rat, in vivo", "result": "slightly increased"}, {"measurement": "ex vivo total femur BMD (DEXA)", "setting": "[1]; rat, in vivo", "result": "slightly increased"}, {"measurement": "trabecular thickness (microCT)", "setting": "[1]; vs sham and ovariectomized rats", "result": "significantly increased"}, {"measurement": "specific activity", "setting": "[2]", "result": "approximately 90 lU/mg"}, {"measurement": "effectiveness in stimulating thyroid hormone production compared to human recombinant TSH", "setting": "thyroid", "result": "10-20 times"}]}
